Structures are written as SMILES. In brackets after ≈: the same amount, converted by molar mass. Read-outs that look alike come from different tables or passages of the source. Some results are limits rather than exact numbers.

Common to all, as to format: cell-based
One test has as its system MSSA (ATCC 25923). In words: Broth microdilution MIC, MSSA ATCC 25923. The note with it: Staphylococcus aureus; Tables 2-4; standardized conditions; read-out: MIC (S. aureus 25923). Background: In broth dilution the organism is exposed to a series of concentrations in liquid medium.
Another test relates to S. aureus 29213. The test is described as follows: Broth microdilution MIC, S. aureus 29213. The note with it: Staphylococcus aureus.
Another test concerns MRSA (ATCC 33591). The test is described as follows: Broth microdilution MIC, MRSA ATCC 33591. The following applies: Staphylococcus aureus; Tables 2-4; standardized conditions. As to the method:
General information—Biological Assays. Methicillin-resistant and methicillin sensitive Staphylococcus aureus (MRSA and MSSA respectively) strains were obtained from the Laboratory of Professor Christian Melander (NCSU) (ATCC BAA 44 and 33591) and Dr. Jessica Gilbertie (ATCC 25923). Bacteria were kept in frozen stocks on glycerol at −80° C. until use. Bacteria was streaked onto tryptic-soy agar for colony isolation. Mueller-Hinton broth (MHB, 211443-BD), tryptic soy broth (TSB, Remel: R455052) and D-glucose (CAS: 492-62-6) were purchased from Fisher Scientific. Tryptic soy agar (TSA, cat. #22091) and Linezolid (cat. #P70014) were purchased from Sigma-Aldrich. Bacteria for biofilm inhibition were cultured overnight in TSB-G (tryptic soy broth with 0.5% glucose supplement) in 96 well plates. All assays were run in duplicate and repeated at least two separate times for MIC assays and at least three separate times for biofilm inhibition. All compounds were dissolved in molecular biology grade DMSO as 10 mM stock solutions. Optical densities were measured using a Thermo Scientific Genesys 20 spectrophotometer. Data for biofilm inhibition were collected using a BioTek ELx808 Microplate Reader. All graphs were generated and analyzed using GraphPad Prism 7.
Broth microdilution method for determination of minimum inhibitory concentrations. As prescribed by the Clinical and Laboratory Standards Institute (CLSI) M07-A8, Vol. 29 (2) MSSA (ATCC 25923) and MRSA (ATCC BAA 44 and 33591) was grown in MHB for 6-8 h; this culture was used to inoculate fresh MHB (5×10^5 CFU/mL). The resulting bacterial suspension was aliquoted (1 mL) into 1.5 mL Eppendorf tubes and compound was added from a 10 mM DMSO stock to achieve the desired initial starting concentration (typically 128 μg/mL). Linezolid (from a 10 mM DMSO stock) was used as a positive control. Inoculated media not treated with compound served as the negative control. The MIC was determined by microbroth dilution following the CLSI guidelines. The MIC was defined as the lowest concentration of antibiotic with no visible growth. The plate was sealed and incubated under stationary conditions at 37° C.
The antimicrobial activity of Compounds 1-15 was assessed initially against MSSA (ATCC 25923) and MRSA (ATCC 33591) strains. It was observed that almost all these compounds precipitated in aqueous solution at concentrations equal or higher than 8-16 μg/mL. In order to obtain preliminary results on the antimicrobial activity for these compounds, the standard conditions of the antimicrobial assays used where modified to favor the water solubility of these compounds.

Setting [1] is: Tables 3-4, standardized conditions, read-out: MIC (S. aureus 29213).
[2] abbreviates: Table 2, standardized conditions, read-out: MIC (S. aureus 25913).

In general, MIC refers to the lowest concentration that inhibits growth of the organism. For the molecule `O=C1C(O)=C(c2ccc(C(F)(F)F)cc2)C([C@@H](O)c2ccccc2)N1c1ccc(Br)cc1` (stereo partly drawn) [Compound 48, 1-(4-Bromophenyl)-3-hydroxy-5-((S)-hydroxy(phenyl)methyl)-4-(4-(trifluoromethyl)phenyl)-1,5-dihydro-2H-pyrrol-2-one], the MIC in the test with MSSA (ATCC 25923) is 32 to 64 µg/mL (≈ 63.5 to 127 µM); in the test with S. aureus 29213 (setting [1]), 16 µg/mL (≈ 31.7 µM); in the test with MRSA (ATCC 33591), 32 µg/mL (≈ 63.5 µM).
Turning to `O=C1C(O)=C(c2ccc(C(F)(F)F)cc2)C(c2cccs2)N1c1ccc(Br)cc1` (stereo not drawn) [Compound 45, 1-(4-Bromophenyl)-3-hydroxy-5-(thiophen-2-yl)-4-(4-(trifluoromethyl)phenyl)-1,5-dihydro-2H-pyrrol-2-one], the MIC in the test with MSSA (ATCC 25923) is above 128 µg/mL; in the test with S. aureus 29213 (setting [1]), 128 µg/mL (≈ 266 µM); in the test with MRSA (ATCC 33591) it was above 128 µg/mL.
Consider `CCC1C(c2ccc(C(F)(F)F)cc2)=C(O)C(=O)N1CCCNCCCCNCCCN` (stereo not drawn) [Compound 24, 1-(3-((4-((3-Aminopropyl)amino)butyl)amino)propyl)-5-ethyl-3-hydroxy-4-(4-(trifluoromethyl)phenyl)-1,5-dihydro-2H-pyrrol-2-one], for which the MIC came out at 8 µg/mL (≈ 17.5 µM) in the test on MSSA (ATCC 25923), 16 µg/mL (≈ 35 µM) in the test with S. aureus 29213 (setting [2]) and 16 µg/mL (≈ 35 µM) against MRSA (ATCC 33591).
As for `CCC1C(c2ccc(C(F)(F)F)cc2)=C(O)C(=O)N1C1CCC(N2C(=O)C(O)=C(c3ccc(C(F)(F)F)cc3)C2CC)CC1` (stereo not drawn) [Compound 28, 1,1′-((1r,4r)-Cyclohexane-1,4-diyl)bis(5-ethyl-3-hydroxy-4-(4-(trifluoromethyl)phenyl)-1,5-dihydro-2H-pyrrol-2-one)], the minimum inhibitory concentration (MIC) with MSSA (ATCC 25923) came to 8 µg/mL (≈ 12.8 µM); with S. aureus 29213 (setting [2]), 32 µg/mL (≈ 51.4 µM); in the test with MRSA (ATCC 33591), 32 µg/mL (≈ 51.4 µM).
Consider `CCC1C(c2ccc(C(F)(F)F)cc2)=C(O)C(=O)N1CCOCCN` (stereo not drawn) [Compound 21, 1-(2-(2-Aminoethoxy)ethyl)-5-ethyl-3-hydroxy-4-(4-(trifluoromethyl)phenyl)-1,5-dihydro-2H-pyrrol-2-one], for which the minimal inhibitory concentration (MIC) in the test with MSSA (ATCC 25923), in the test with S. aureus 29213 (setting [2]) and against MRSA (ATCC 33591) was above 128 µg/mL throughout.
Consider `CCC1C(c2ccc(C(F)(F)F)cc2)=C(O)C(=O)N1CCN(CCN1C(=O)C(O)=C(c2ccc(C(F)(F)F)cc2)C1CC)CCN1C(=O)C(O)=C(c2ccc(C(F)(F)F)cc2)C1CC` (stereo not drawn) [Compound 40, 1,1′,1″-(nitrilotris(ethane-2,1-diyl))tris(5-ethyl-3-hydroxy-4-(4-(trifluoromethyl)phenyl)-1,5-dihydro-2H-pyrrol-2-one)], for which the minimal inhibitory concentration (MIC) in the test on MSSA (ATCC 25923), in the test with S. aureus 29213 (setting [1]) and in the test with MRSA (ATCC 33591) was above 128 µg/mL in each case.
As for `CCC1C(c2ccc(C(F)(F)F)cc2)=C(O)C(=O)N1CCCCCCN` (stereo not drawn) [Compound 18, 1-(6-Aminohexyl)-5-ethyl-3-hydroxy-4-(4-(trifluoromethyl)phenyl)-1,5-dihydro-2H-pyrrol-2-one], the minimal inhibitory concentration (MIC) in the test with MSSA (ATCC 25923), in the test with S. aureus 29213 (setting [2]) and against MRSA (ATCC 33591) was above 128 µg/mL each time.
In the case of `O=C1C(O)=C(c2ccc(C(F)(F)F)cc2)C(Cc2ccccc2)N1c1ccc(Br)cc1` (stereo not drawn) [Compound 46, 5-Benzyl-1-(4-bromophenyl)-3-hydroxy-4-(4-(trifluoromethyl)phenyl)-1,5-dihydro-2H-pyrrol-2-one], the MIC in the test on MSSA (ATCC 25923), in the test with S. aureus 29213 (setting [1]) and in the test on MRSA (ATCC 33591) was above 128 µg/mL in each case.
Take `CCC1C(c2ccc(C(F)(F)F)cc2)=C(O)C(=O)N1CCCCCCN1C(=O)C(O)=C(c2ccc(C(F)(F)F)cc2)C1CC` (stereo not drawn) [Compound 27, 1,1′-(Hexane-1,6-diyl)bis(5-ethyl-3-hydroxy-4-(4-(trifluoromethyl)phenyl)-1,5-dihydro-2H-pyrrol-2-one)]: the minimum inhibitory concentration (MIC) with MSSA (ATCC 25923), with S. aureus 29213 (setting [2]) and in the test with MRSA (ATCC 33591) was above 128 µg/mL in each case.
With `CCC1C(c2ccc(C(F)(F)F)cc2)=C(O)C(=O)N1c1ccc(Br)cc1` (stereo not drawn) [Compound 42, 1-(4-Bromophenyl)-5-ethyl-3-hydroxy-4-(4-(trifluoromethyl)phenyl)-1,5-dihydro-2H-pyrrol-2-one], the MIC with MSSA (ATCC 25923), in the test on S. aureus 29213 (setting [1]) and in the test with MRSA (ATCC 33591) was above 128 µg/mL in each case.
As for `CCC1C(c2ccc(C(F)(F)F)cc2)=C(O)C(=O)N1CCSCCN` (stereo not drawn) [Compound 36], the minimum inhibitory concentration (MIC) with MSSA (ATCC 25923), in the test on S. aureus 29213 (setting [1]) and in the test with MRSA (ATCC 33591) was above 128 µg/mL in each case.
Take `CCC1C(c2ccc(C(F)(F)F)cc2)=C(O)C(=O)N1CCCNCCCCN` (stereo not drawn) [Compound 23, 1-(3-((4-Aminobutyl)amino)propyl)-5-ethyl-3-hydroxy-4-(4-(trifluoromethyl)phenyl)-1,5-dihydro-2H-pyrrol-2-one]: the minimum inhibitory concentration (MIC) is 16 µg/mL (≈ 40.1 µM) in the test with MSSA (ATCC 25923), 64 µg/mL (≈ 160 µM) with S. aureus 29213 (setting [2]) and 32 to 64 µg/mL (≈ 80.1 to 160 µM) against MRSA (ATCC 33591).
Turning to `O=C1C(O)=C(c2ccc(C(F)(F)F)cc2)C(C(O)CO)N1c1ccc(Br)cc1` (stereo not drawn) [Compound 49, 1-(4-Bromophenyl)-5-(1,2-dihydroxyethyl)-3-hydroxy-4-(4-(trifluoromethyl)phenyl)-1,5-dihydro-2H-pyrrol-2-one], the MIC in the test on MSSA (ATCC 25923), in the test on S. aureus 29213 (setting [1]) and in the test on MRSA (ATCC 33591) was above 128 µg/mL each time.
Regarding `CCC1C(c2ccc(C(F)(F)F)cc2)=C(O)C(=O)N1CCNCCNCCNCCN` (stereo not drawn) [Compound 34], the MIC in the test on MSSA (ATCC 25923), in the test with S. aureus 29213 (setting [1]) and against MRSA (ATCC 33591) was above 128 µg/mL each time.
For the molecule `CCC1C(c2ccc(C(F)(F)F)cc2)=C(O)C(=O)N1CCCCN` (stereo not drawn) [Compound 17, 1-(4-Aminobutyl)-5-ethyl-3-hydroxy-4-(4-(trifluoromethyl)phenyl)-1,5-dihydro-2H-pyrrol-2-one], the MIC with MSSA (ATCC 25923), with S. aureus 29213 (setting [2]) and against MRSA (ATCC 33591) was above 128 µg/mL each time.
As to `O=C1C(O)=C(c2ccc(C(F)(F)F)cc2)C([C@H](O)c2ccccc2)N1c1ccc(F)cc1` (stereo partly drawn) [Compound 53, 1-(4-Fluorophenyl)-3-hydroxy-5-((R)-hydroxy(phenyl)methyl)-4-(4-(trifluoromethyl)phenyl)-1,5-dihydro-2H-pyrrol-2-one], the values for the MIC in the test on MSSA (ATCC 25923), in the test on S. aureus 29213 (setting [1]) and in the test with MRSA (ATCC 33591) were 16 µg/mL (≈ 36.1 µM), 128 µg/mL (≈ 289 µM) and 128 µg/mL (≈ 289 µM), respectively.
Take `CCC1C(c2ccc(C(F)(F)F)cc2)=C(O)C(=O)N1CCOCCOCCOCCN1C(=O)C(O)=C(c2ccc(C(F)(F)F)cc2)C1CC` (stereo not drawn) [Compound 31, 1,1′-(((Oxybis(ethane-2,1-diyl))bis(oxy))bis(ethane-2,1-diyl))bis(5-ethyl-3-hydroxy-4-(4-(trifluoromethyl)phenyl)-1,5-dihydro-2H-pyrrol-2-one)]: the MIC in the test with MSSA (ATCC 25923), with S. aureus 29213 (setting [2]) and against MRSA (ATCC 33591) was above 128 µg/mL in each case.
As to `CCC1C(c2ccc(C(F)(F)F)cc2)=C(O)C(=O)N1CCN(CCN)CCN1C(=O)C(O)=C(c2ccc(C(F)(F)F)cc2)C1CC` (stereo not drawn) [Compound 39, 1,1′-(((2-aminoethyl)azanediyl)bis(ethane-2,1-diyl))bis(5-ethyl-3-hydroxy-4-(4-(trifluoromethyl)phenyl)-1,5-dihydro-2H-pyrrol-2-one)], the MIC in the test with MSSA (ATCC 25923), with S. aureus 29213 (setting [1]) and with MRSA (ATCC 33591) was 64 µg/mL (≈ 97.8 µM) in each case.
`CC1C(c2ccc(C(F)(F)F)cc2)=C(O)C(=O)N1c1ccc(Br)cc1` (stereo not drawn) [Compound 41, 1-(4-Bromophenyl)-3-hydroxy-5-methyl-4-(4-(trifluoromethyl)phenyl)-1,5-dihydro-2H-pyrrol-2-one]: the MIC was above 128 µg/mL in the test with MSSA (ATCC 25923), above 128 µg/mL in the test with S. aureus 29213 (setting [1]) and 32 µg/mL (≈ 77.6 µM) in the test on MRSA (ATCC 33591).
